This note sets out measurements from patent US6495133B1, “Gliocladium roseum strains useful for the control of fungal pathogens in plants” (priority 1998, dated 2002).

This test has as its system Pythium aphanidermatum. Kind of test: Comparison and compatibility of ACM941 with metalaxyl fungicide, pythium root rot of field pea, field experiments. To be noted: for Emergence / Yield: Saturn field pea. It counts as in vivo.
Where [1] appears, read: average of the two testing years.

Under “1997”, `COCC(=O)N(c1c(C)cccc1C)C(C)C(=O)OC` (stereo not drawn) [Metalaxyl, metalaxyl] came in with an Emergence of 44.3 ab % and a Yield of 990 bc kg/ha. Further, under “1998”, the Emergence is on record as 78.2 a % and the Yield is 5757 a kg/ha. Moreover, under setting [1], the “increased emergence by” value is listed as 17.3% and the “increased yield by” value turned out to be 19.5%.
